Assay results from patent US20100068252A1, “METHOD FOR PREPARING POLYMERIC MATRICES BY RADIATION IN THE PRESENCE OF SENSITIVE PHARMACEUTICAL COMPOUNDS” (DSM IP ASSETS B.V., priority 2006, published 2010).

assay: Phase (ii) testing: UV irradiation of drug with photoinitiator (radical generation), drug recovery by HPLC; format: physicochemical; settings: sensitive = degrades more than 5% with radical generation at 12 J/cm^2
Excerpt: As used herein, the term sensitive pharmaceutical compounds is to be interpreted as compounds that degrade for more than 5% in an environment with radical generation at 12 J/cm^2 irradiation. More in particular, the pharmaceutical can be sensitive during polymerisation that can be initiated with UV or visible light (200-700 nm) or with electron beam or gamma radiation, and without or up to 10% radical generating species (initiator) present. If an initiator is present, it is preferably about 1-10 wt % of a photoinitiator. In addition to photoinitiators, the system may comprise also a thermal initiator (for example peroxide and/or redox initiators). Preferably a radiation sensitive (photo)initiator is used, for example a Norrish Type I or Type II initiator. It is possible to work in the absence of these radical generating species where electron beam or gamma radiation is used or in the case where unsaturated compounds (one compound whose double bond is electron rich and another compound whose double bond is electron poor) react with each other via a donor-acceptor complex to form a polymer.
Potential degradation can be measured by dissolving 100 ppm (0.1 g/l) pharmaceutical compound in a suitable solvent in a quartz, glass or HPLC vessel. One series of vessels is used as such. In a second series of vessels, the one or more initiators, preferably those used in the polymerization mixture, are added in the same amount as the pharmaceutical compound. Next, the vessels are subjected to irradiation at 2 and 12 J/cm^2. As an example, UV radiation can be performed with a lab UV source Bluepoint 2, equipped with a D-bulb D65 and directed onto the sample by a UV light guide. The output from the guide is 200 mW/cm^2 (200 mJ/cm^2 per second) as measured with a Solascope 1 UV spectrometer. A dose of 2 and 12 J/cm^2 was achieved by irradiating 10 and 60 seconds, respectively. The choice of irradiation system could be governed by the applications or processing considerations that typically influence hardware use in a laboratory, hospital or manufacturing environment. […]
The recovery could be analysed by HPLC. […] UV spectra of the drugs before and after UV irradiation (at both 2 and 12 J/cm^2) had identical shapes, meaning that the HPLC method could be used to quantitatively measure changes in drug concentrations. Any degradation would be calculated as: minus the percentage of recovered API.
UV irradiation of drug-containing solutions (see below) was performed with a lab UV source Dr. Hoenle Bluepoint 2, equipped with a D-bulb, directed onto the (open) HPLC vials (2 ml) by a UV light guide (200 mW/cm^2; 200 mJ/cm^2 per second as measured with Solascope 1 UV emission spectrometer). […]

Radical sensitivity in the current testing method, radical sensitive:
COc1cc2nc(N3CCN(C(=O)C4CCCO4)CC3)nc(N)c2cc1OC (stereo not shown) [Terazosin ®, Terazosin]
CCCCc1oc2ccccc2c1C(=O)c1cc(I)c(OCCN(CC)CC)c(I)c1 [Amiodarone ®, Amiodarone]
COc1cc2nc(N3CCN(C(=O)c4ccco4)CC3)nc(N)c2cc1OC [Prazosin ®, Prazosin]
O=C(N[C@H](CO)[C@H](O)c1ccc([N+](=O)[O-])cc1)C(Cl)Cl [Chloroamphenicol]
